Measured values taken from US4503056A, “1-(Pyridazinyl)pyrazoline derivatives” (Abbott Laboratories, priority 1982, dated 1985).

How the values were obtained:
[1] = test system: dermal Arthus reaction; assay: reverse passive Arthus reaction test; format: in vivo, Male Sprague-Dawley rats; details: rats; 100 mg/kg oral, 30 min before intradermal Anti-B.S.A.; lesion measured 4 hours later; reduction in lesion area vs control
Procedure: Proc. 35, 774 (1976). Each compound was administered orally to a group of four animals.
The reverse passive Arthus reaction test in rats is conducted as follows: Male Sprague-Dawley rats weighing approximately 130-160 g. are used, 4 rats per group. All animals are injected intravenously with 0.5 ml. 0.075% Bovine Serum Albumin (B.S.A.)+2% Evans Blue solution. Each rat then receives an oral dose of drug; one drug is administered per group.
Thirty minutes subsequent to drug dosing, each animal is injected intradermally with 0.05 ml. 1.44% Anti-B.S.A. into the dorsal skin. Four hours later the animals are sacrificed, the dorsal skin reflexed, and the lesion excised. Two perpendicular diameters of each lesion are measured. The average diameters of the lesions from the treated groups are compared with the average diameters from the control group to determine any drug effect.

[2] = test system: carrageenin pleurisy; assay: modification of the carrageenin pleurisy assay (Vinegar et al.); format: in vivo; details: Dose 100 (dose unit not given); for % Inhibition, Volume exudates: reduction in accumulation of exudate volume; for % Inhibition, Cells: reduction in accumulation of leukocytes
Source text: The anti-inflammatory activity of these compounds was established by using a modification of the carrageenin pleurisy assay described by Vinegar et al. Proc. Soc. Exp. Biol. Med. 143:711 (1973).

Compound | % Inhibition of lesion of dermal Arthus reaction [1] | % Inhibition, Volume exudates [2] [%] | % Inhibition, Cells [2] [%]
CCCCC1C(=O)N(c2ccccc2)N(c2ccccc2)C1=O [Phenylbutazone, reference compound] | inactive | 59 | 13
NC1=NN(c2ccc(-c3ccccc3Cl)nn2)CC1 [1-[6'-(ortho-chlorophenyl)-pyridazin-3'-yl]-3-aminopyrazol-2-ene] | 58% |  | 
NC1=NN(c2ccc(-c3ccccc3)nn2)CC1 [1-[6'-Phenylpyridazin-3'-yl]-3-aminopyrazol-2-ene] | 65% | 73 | 51
NC1=NN(c2ccc(-c3cccc(Cl)c3)nn2)CC1 [1-[6'-(meta-chlorophenyl)pyridazin-3'-yl]-3-aminopyrazol-2-ene] | 51% |  | 
CC1CC(N)=NN1c1ccc(-c2ccccc2)nn1 (stereo not drawn) [1-[6'-phenylpyridazin-3'-yl]-3-amino-5-methylpyrazol-2-ene] | 54% |  | 
